Source: patent US20150176022A1, “HERBICIDE-RESISTANT SUNFLOWER PLANTS, POLYNUCLEOTIDES ENCODING HERBICIDE=RESISTANT ACETO HYDROXY ACID SYNTHASE LARGE SUBUNIT PROTEINS, AND METHODS OF USE” (priority 2013, published 2015)
Values joined by “and” are separate entries in the source; they are usually repeats but may differ in a detail not shown here. Equal values may be shown once.

How the values were obtained:
Assay type in all cases: in vivo, Helianthus annuus
[1] = tested on: Clearfield-Sunflower variety A; test: Greenhouse spray test, injury rating (Example 5); conditions: Imazapyr 240 gm ai/ha, 14 DAT, scale 0=no injury to 9=dead plant
From the text: (§1) Sunflower lines S4897, Clearfield® sunflower varieties A, B, C and a conventional non-Clearfield variety were sprayed with three rates of imazamox (Raptor™), 100, 200 and 300 gm ai/ha plus 0.5% Sun It II and two rates of imazapyr (Arsenal™) 160 and 360 gm ai/ha plus 0.5% Sun It II when the plants were at the two to three leaf stage. Ratings were taken at 14 days after application (DAT) for injury. Injury was rated on a scale from 0 to 9 where 0=no injury to 9=dead plant. Twelve plants were sprayed per herbicide/rate treatment. Statistical analysis was conducted with STATGRAPHICS Plus 5.0 by using ANOVA and LSD procedures.
(§2) After plants were sprayed, it was realized that a height difference between S4897 and other sunflower varieties would have impacted the actual herbicide dose that was delivered. The spray boom height had been calibrated against S4897 and since the other varieties were taller and closer to the boom they would have received a greater dose of herbicide. Rates were recalibrated for the other varieties to determine the approximate dose they would have received. Assessments were made as presented in Table 2 since it was not possible to make a direct rate comparison due to the effect of the height. For example injury scores were compare for S4897 treated imazamox rate 100 gm ai/ha to the other varieties treated at 75 gm ai/ha. The treatment dose of 300 gm ai/ha for line S4897 was equivalent to the treatment of 200 gm ai/ha for the other varieties, which […].

[2] = tested on: Clearfield-Sunflower variety B; test: Greenhouse spray test, injury rating (Example 5); conditions: Imazapyr 240 gm ai/ha, 14 DAT, scale 0=no injury to 9=dead plant
From the text: as §1, §2

[3] = tested on: Clearfield-Sunflower variety C; test: Greenhouse spray test, injury rating (Example 5); conditions: Imazapyr 240 gm ai/ha, 14 DAT, scale 0=no injury to 9=dead plant
From the text: as §1, §2

[4] = tested on: Conventional non-Clearfield sunflower variety; test: Greenhouse spray test, injury rating (Example 5); conditions: Imazapyr 240 gm ai/ha, 14 DAT, scale 0=no injury to 9=dead plant
From the text: as §1, §2

Sunflower line S4897 = test: Greenhouse spray test, injury rating (Example 5); conditions: Imazapyr 360 gm ai/ha, 14 DAT, scale 0=no injury to 9=dead plant
From the text: as §1, §2

[5] = tested on: sunflower genotypes carrying the A205V mutation event; test: Greenhouse whole-plant imazapir dose response (Example 8), group mean; conditions: 14 DAT; for biomass, Dif with control (reduction), A205V / plant height, Dif with Control (height reduction), A205V / root dry weight, Dif with control (reduction), A205V: A205V mean; for biomass accumulation (% of untreated), Mean A205V / root dry weight (% of untreated), Mean A205V / plant height (% of untreated), Mean A205V: mean of six A205V genotypes; for Phytotoxicity Index, Mean A205V: mean of three A205V genotypes
Procedure: (§3) A greenhouse study was conducted to quantify and contrast the imazapir sensitivity of the mutants A122T and A205V in different genetic backgrounds at the whole plant level in sunflower. Seeds of the different sunflower lines that were used in this study were obtained under field conditions.
(§4) Seeds were sown in Petri dishes and, after germination, plantlets were transplanted to pots of 10 cm of diameter in a potting media consisting of equal parts of vermiculite, soil and sand. Plants were grown in a greenhouse under natural light conditions supplemented with 400 W sodium halide lamps to provide a 16 hrs daylength. Day/night temperatures were 25 and 20° C., respectively. At the V2 stage 10 plants of each genotype were randomly assigned to each treatment consisting of […] imazapir doses (0, 40, 80, 160, 240, 320, 400 and 480 g ai/ha), and a zero-time biomass determination. Experiment was arranged as a randomized block design with a full factorial (sunflower line×treatment) arrangement of treatments and 10 replications.
(§5) On the day of herbicide application ten plants of each genotype were cut at the cotyledonal node and dried at 60° C. for 48 hrs zero-time for dried weight determination. […] Height was determined as the distance between the cotyledonal node and the apex of each plant. For root biomass determination, each plant was taken from the pot and the potting media was washed out from the roots. Above ground biomass data from each line were converted to biomass accumulation after application by subtracting the appropriate average zero-time biomass from each sample. Dry biomass data were converted to percentages of the untreated control plants within each line to allow direct comparisons between groups.

[6] = tested on: A122T versus A205V sunflower genotypes; test: Greenhouse whole-plant imazapir dose response (Example 8), difference between mutants; conditions: difference of group means, 14 DAT
Procedure: as §3, §4, §5

SMILES: CC(C)C1(C)N=C(c2ncccc2C(=O)O)NC1=O (stereo not shown) [imazapir, imazapyr]
- Injury [1]: 5.0 c
- Injury [2]: 4.3 b
- Injury [3]: 4.9 c
- Injury [4]: 8.2 days
- Injury (Sunflower line S4897; listed as Imazapyr): 0.8 a
- Injury (Sunflower line S4897; listed as imazapyr): very little injury
- biomass, Dif with control (reduction), A205V ([5]; 0.5× (40 g ai/ha)): 5.5%
- plant height, Dif with Control (height reduction), A205V ([5]; 0.5× (40 g ai/ha)): 5.6%
- root dry weight, Dif with control (reduction), A205V ([5]; 0.5× (40 g ai/ha)): 12.8%
- biomass, Dif with control (reduction), A205V ([5]; 1× (80 g ai/ha)): 17.8%
- plant height, Dif with Control (height reduction), A205V ([5]; 1× (80 g ai/ha)): 10.8%
- root dry weight, Dif with control (reduction), A205V ([5]; 1× (80 g ai/ha)): 29.2%
- biomass, Dif with control (reduction), A205V ([5]; 2× (160 g ai/ha)): 38.4%
- plant height, Dif with Control (height reduction), A205V ([5]; 2× (160 g ai/ha)): 30.8%
- root dry weight, Dif with control (reduction), A205V ([5]; 2× (160 g ai/ha)): 49.4%
- biomass, Dif with control (reduction), A205V ([5]; 3× (240 g ai/ha)): 52.4%
- plant height, Dif with Control (height reduction), A205V ([5]; 3× (240 g ai/ha)): 49.6%
- root dry weight, Dif with control (reduction), A205V ([5]; 3× (240 g ai/ha)): 60.8%
- biomass, Dif with control (reduction), A205V ([5]; 4× (320 g ai/ha)): 64.6%
- plant height, Dif with Control (height reduction), A205V ([5]; 4× (320 g ai/ha)): 66.3%
- root dry weight, Dif with control (reduction), A205V ([5]; 4× (320 g ai/ha)): 68.9%
- biomass, Dif with control (reduction), A205V ([5]; 5× (400 g ai/ha)): 67.6%
- plant height, Dif with Control (height reduction), A205V ([5]; 5× (400 g ai/ha)): 68.0%
- root dry weight, Dif with control (reduction), A205V ([5]; 5× (400 g ai/ha)): 69.3%
- biomass, Dif with control (reduction), A205V ([5]; 6× (480 g ai/ha)): 70.0%
- plant height, Dif with Control (height reduction), A205V ([5]; 6× (480 g ai/ha)): 68.9% and 69.8%
- root dry weight, Dif with control (reduction), A205V ([5]; 6× (480 g ai/ha)): 75.6%
- biomass accumulation (% of untreated), Mean A205V ([5]; 0.5× (40 g ai/ha)): 94.5%
- root dry weight (% of untreated), Mean A205V ([5]; 0.5× (40 g ai/ha)): 87.2%
- biomass accumulation (% of untreated), Mean A205V ([5]; 1× (80 g ai/ha)): 82.2%
- root dry weight (% of untreated), Mean A205V ([5]; 1× (80 g ai/ha)): 70.8%
- biomass accumulation (% of untreated), Mean A205V ([5]; 2× (160 g ai/ha)): 61.6%
- plant height (% of untreated), Mean A205V ([5]; 2× (160 g ai/ha)): 69.2%
- root dry weight (% of untreated), Mean A205V ([5]; 2× (160 g ai/ha)): 50.6%
- biomass accumulation (% of untreated), Mean A205V ([5]; 3× (240 g ai/ha)): 47.6%
- plant height (% of untreated), Mean A205V ([5]; 3× (240 g ai/ha)): 50.4%
- root dry weight (% of untreated), Mean A205V ([5]; 3× (240 g ai/ha)): 39.2%
- biomass accumulation (% of untreated), Mean A205V ([5]; 4× (320 g ai/ha)): 35.4%
- plant height (% of untreated), Mean A205V ([5]; 4× (320 g ai/ha)): 33.7%
- root dry weight (% of untreated), Mean A205V ([5]; 4× (320 g ai/ha)): 31.1%
- biomass accumulation (% of untreated), Mean A205V ([5]; 5× (400 g ai/ha)): 32.4%
- plant height (% of untreated), Mean A205V ([5]; 5× (400 g ai/ha)): 32.0%
- root dry weight (% of untreated), Mean A205V ([5]; 5× (400 g ai/ha)): 30.7%
- biomass accumulation (% of untreated), Mean A205V ([5]; 6× (480 g ai/ha)): 30.0%
- plant height (% of untreated), Mean A205V ([5]; 6× (480 g ai/ha)): 30.2%
- root dry weight (% of untreated), Mean A205V ([5]; 6× (480 g ai/ha)): 24.4%
- Phytotoxicity Index, Mean A205V ([5]; 2× (160 g ai/ha)): 2.2
- Phytotoxicity Index, Mean A205V ([5]; 3× (240 g ai/ha)): 5.1
- Phytotoxicity Index, Mean A205V ([5]; 4× (320 g ai/ha)): 7.4
- Phytotoxicity Index, Mean A205V ([5]; 5× (400 g ai/ha)): 8.2
- Phytotoxicity Index, Mean A205V ([5]; 6× (480 g ai/ha)): 8.2
- Phytotoxicity Index, Dif A205V-A122T ([6]; 0.5× (40 g ai/ha)): −0.29
- biomass, Dif A122T-A205V ([6]; 0.5× (40 g ai/ha)): 4.3%
- plant height, Dif A122T-A205V ([6]; 0.5× (40 g ai/ha)): 4.9%
- root dry weight, Dif A122T-A205V ([6]; 0.5× (40 g ai/ha)): 12.7%
- Phytotoxicity Index, Dif A205V-A122T ([6]; 1× (80 g ai/ha)): −0.29
- biomass, Dif A122T-A205V ([6]; 1× (80 g ai/ha)): 14.5%
- plant height, Dif A122T-A205V ([6]; 1× (80 g ai/ha)): 9.4%
- root dry weight, Dif A122T-A205V ([6]; 1× (80 g ai/ha)): 26.7%
- Phytotoxicity Index, Dif A205V-A122T ([6]; 2× (160 g ai/ha)): 1.87
- biomass, Dif A122T-A205V ([6]; 2× (160 g ai/ha)): 33.2%
- plant height, Dif A122T-A205V ([6]; 2× (160 g ai/ha)): 28.0%
- root dry weight, Dif A122T-A205V ([6]; 2× (160 g ai/ha)): 43.6%
- Phytotoxicity Index, Dif A205V-A122T ([6]; 3× (240 g ai/ha)): 4.81
- biomass, Dif A122T-A205V ([6]; 3× (240 g ai/ha)): 45.3%
- plant height, Dif A122T-A205V ([6]; 3× (240 g ai/ha)): 45.3%
- root dry weight, Dif A122T-A205V ([6]; 3× (240 g ai/ha)): 50.2%
- Phytotoxicity Index, Dif A205V-A122T ([6]; 4× (320 g ai/ha)): 6.92
- biomass, Dif A122T-A205V ([6]; 4× (320 g ai/ha)): 52.4%
- plant height, Dif A122T-A205V ([6]; 4× (320 g ai/ha)): 59.9%
- root dry weight, Dif A122T-A205V ([6]; 4× (320 g ai/ha)): 50.3%
- Phytotoxicity Index, Dif A205V-A122T ([6]; 5× (400 g ai/ha)): 7.38
- biomass, Dif A122T-A205V ([6]; 5× (400 g ai/ha)): 46.9%
- plant height, Dif A122T-A205V ([6]; 5× (400 g ai/ha)): 57.8%
- root dry weight, Dif A122T-A205V ([6]; 5× (400 g ai/ha)): 47.9%
- Phytotoxicity Index, Dif A205V-A122T ([6]; 6× (480 g ai/ha)): 7.03
- biomass, Dif A122T-A205V ([6]; 6× (480 g ai/ha)): 44.6%
- plant height, Dif A122T-A205V ([6]; 6× (480 g ai/ha)): 54.0%
- root dry weight, Dif A122T-A205V ([6]; 6× (480 g ai/ha)): 37.3%
